Measured values taken from patent US20020137929A1, “1 - (3-heterocyclylphenyl) isothiourea, -isourea, -guanidine and -amidine herbicidal agents” (Intellectual Property Department, BASF Aktiengesellschaft, priority 1998, published 2002).

Tests used:
[1] = system: GLXMAW (Soybean, Williams); assay: Preemergence herbicidal evaluation; assay type: in vivo, Glycine max, (L.) Merr. cv Williams; settings: rated 4-5 weeks after treatment
Text: (§1) Results of herbicide evaluation are expressed on a rating scale (0-9). The scale is based upon a visual observation of plant stand, vigor, malformation, size, chlorosis and overall plant appearance as compared with a control.
(§2) The preemergence herbicidal activity of the test compounds of the present invention is exemplified by the following tests in which the seeds of a variety of monocotyledonous and dicotyledonous plants are separately mixed with potting soil and planted on top of approximately one inch of soil in separate pint cups. After planting, the cups are sprayed with the selected aqueous acetone solution containing test compound in sufficient quantity to provide the equivalent of about 0.0156 to 0.500 kg per hectare of test compound per cup. The treated cups are then placed on greenhouse benches, watered and cared for in accordance with conventional greenhouse procedures. From four to five weeks after treatment, the tests are terminated and each cup is examined and rated according to the rating system provided in Example 37.
(§3) The compounds evaluated are reported by compound number given in Example 37.

AMBEL (Ragweed, Common) = assay: Preemergence herbicidal evaluation; assay type: in vivo, Ambrosia artemisifolia; settings: rated 4-5 weeks after treatment
Text: as §1, §2, §3

ABUTH (Velvetleaf) = assay: Preemergence herbicidal evaluation; assay type: in vivo, Abutilon theophrasti; settings: rated 4-5 weeks after treatment
Text: as §1, §2, §3

ZEAMX (Corn, Field) = assay: Postemergence herbicidal evaluation; assay type: in vivo, Zea mays; settings: postemergence
Method in brief: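 Two-week-old seedlings sprayed with compound in 50/50 acetone/water plus 0.5% TWEEN 20, at about 0.0156 to 0.500 kg/ha, nozzle at 40 psi. Kept in greenhouse; rated visually 4-5 weeks after treatment on a 0-9 scale versus control, repeat tests averaged.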

[2] = rate 0.0313 kg/ha, rating scale 0-9
[3] = rate 0.0625 kg/ha, rating scale 0-9
[4] = rate 0.1250 kg/ha, rating scale 0-9
[5] = rate 0.2500 kg/ha, rating scale 0-9

| Compound | Preemergence herbicidal rating GLXMAW ([1]; rate 0.0156 kg/ha) | Preemergence herbicidal rating GLXMAW ([1]; rate 0.0625 kg/ha) | Preemergence herbicidal rating GLXMAW ([1]; rate 0.1250 kg/ha) | Preemergence herbicidal rating GLXMAW ([1]; rate 0.2500 kg/ha) | Preemergence herbicidal rating AMBEL (AMBEL (Ragweed, Common); rate 0.0156 kg/ha) | Preemergence herbicidal rating AMBEL (AMBEL (Ragweed, Common); rate 0.0313 kg/ha) | Preemergence herbicidal rating AMBEL (AMBEL (Ragweed, Common); rate 0.0625 kg/ha) | Preemergence herbicidal rating AMBEL (AMBEL (Ragweed, Common); rate 0.1250 kg/ha) | Preemergence herbicidal rating AMBEL (AMBEL (Ragweed, Common); rate 0.2500 kg/ha) | Preemergence herbicidal rating ABUTH (ABUTH (Velvetleaf); rate 0.0156 kg/ha) | Preemergence herbicidal rating ABUTH (ABUTH (Velvetleaf); rate 0.0313 kg/ha) | Preemergence herbicidal rating ABUTH (ABUTH (Velvetleaf); rate 0.0625 kg/ha) | Preemergence herbicidal rating ABUTH (ABUTH (Velvetleaf); rate 0.1250 kg/ha) | Preemergence herbicidal rating ABUTH (ABUTH (Velvetleaf); rate 0.2500 kg/ha) | Preemergence herbicidal rating GLXMAW ([1]; rate 0.0313 kg/ha) | Herbicidal rating ZEAMX (ZEAMX (Corn, Field); rate 0.0156 kg/ha) | Herbicidal rating ZEAMX (ZEAMX (Corn, Field); rate 0.0313 kg/ha) | Herbicidal rating ZEAMX (ZEAMX (Corn, Field); rate 0.0625 kg/ha) | also measured |
| --- | --- | --- | --- | --- | --- | --- | --- | --- | --- | --- | --- | --- | --- | --- | --- | --- | --- | --- | --- |
| COC(=O)COC(=O)CN1C(=O)CSC1=Nc1cc(-n2c(=O)cc(C(F)(F)F)n(C)c2=O)c(F)cc1Cl [Compound 108, 2-{{2-Chloro-5-[3,6-dihydro-3-methyl-2,6-dioxo-4-(trifluoromethyl)-1(2H)-pyrimidinyl]-4-fluorophenyl}imino}-4-oxo-3-thiazolidineacetic acid, ester with methyl glycolate] | 0.0 | 2.0 | 2.0 | 2.0 | 0.0 | 0.0 | 0.0 | 0.0 | 1.0 | 0.0 | 0.0 | 4.0 | 8.0 | 9.0 | – | – | – | – | Herbicidal rating ZEAMX (ZEAMX (Corn, Field); rate 0.0158 kg/ha): 5.0; Herbicidal rating ZEAMX (ZEAMX (Corn, Field); rate 0.0315 kg/ha): 6.0; Herbicidal rating ZEAMX (ZEAMX (Corn, Field); rate 0.0630 kg/ha): 6.5 |
| CC(C)OC(=O)CN1C(=O)CSC1=Nc1cc(-n2c(=O)cc(C(F)(F)F)n(C)c2=O)c(F)cc1Cl [Compound 110] | 0.5 | 2.5 | 4.0 | 5.5 | 1.0 | 2.5 | 3.5 | 4.5 | 6.5 | 5.5 | 9.0 | 9.0 | 9.0 | 9.0 | 0.5 | – | – | – | Preemergence herbicidal rating GLXMAW ([1]; rate 0.5000 kg/ha): 7.0; Preemergence herbicidal rating AMBEL (AMBEL (Ragweed, Common); rate 0.5000 kg/ha): 9.0; Preemergence herbicidal rating ABUTH (ABUTH (Velvetleaf); rate 0.5000 kg/ha): 9.0; Herbicidal rating ZEAMX (ZEAMX (Corn, Field); rate 0.0158 kg/ha): 5.0; Herbicidal rating ZEAMX (ZEAMX (Corn, Field); rate 0.0315 kg/ha): 6.5; Herbicidal rating ZEAMX (ZEAMX (Corn, Field); rate 0.0630 kg/ha): 7.0 |
| Cn1c(C(F)(F)F)cc(=O)n(-c2cc(N=C3SCC(=O)N3CC(=O)OC3CCCC3)c(Cl)cc2F)c1=O [Compound 120, Cyclopentyl 2-{{2-chloro-5-[3,6-dihydro-3-methyl-2,6-dioxo-4-(trifluoromethyl)-1(2H)-pyrimidinyl]-4-fluorophenyl}imino}-4-oxo-3-thiazolidineacetate] | 0.0 | 0.0 | 0.0 | 3.0 | 0.0 | 0.0 | 3.0 | 4.0 | 4.0 | 0.0 | 9.0 | 9.0 | 9.0 | 9.0 | 0.0 | 6.0 | 7.0 | 8.0 | – |
| CC(C)COC(=O)CN1C(=O)CSC1=Nc1cc(-n2c(=O)cc(C(F)(F)F)n(C)c2=O)c(F)cc1Cl [Compound 121, Isobutyl 2-{{2-chloro-5-[3,6-dihydro-3-methyl-2,6-dioxo-4-(trifluoromethyl)-1(2H)-pyrimidinyl]-4-fluorophenyl}imino}-4-oxo-3-thiazolidineacetate] | 0.0 | 0.0 | 1.0 | 2.0 | 0.0 | 2.0 | 3.0 | 4.0 | 8.0 | 9.0 | 9.0 | 9.0 | 9.0 | 9.0 | 0.0 | 5.0 | 5.0 | 6.0 | – |
| Cn1c(C(F)(F)F)cc(=O)n(-c2cc(N=C3SCC(=O)N3CC(=O)OCC3CCCCC3)c(Cl)cc2F)c1=O [Compound 123, Cyclohexylmethyl 2-{{2-chloro-5-[3,6-dihydro-3-methyl-2,6-dioxo-4-(trifluoromethyl)-1(2H)-pyrimidinyl]-4-fluorophenyl}imino}-4-oxo-3-thiazolidineacetate] | 0.0 | 1.0 | 4.0 | 9.0 | 2.0 | 1.0 | 3.0 | 4.0 | 9.0 | 9.0 | 9.0 | 9.0 | 9.0 | 9.0 | 0.0 | 6.5 | 7.0 | 7.5 | Preemergence herbicidal rating GLXMAW ([1]; rate 0.5000 kg/ha): 6.0; Preemergence herbicidal rating AMBEL (AMBEL (Ragweed, Common); rate 0.5000 kg/ha): 9.0; Preemergence herbicidal rating ABUTH (ABUTH (Velvetleaf); rate 0.5000 kg/ha): 9.0; Herbicidal rating ZEAMX (ZEAMX (Corn, Field); rate 0.1250 kg/ha): 7.5 |
| CCOC(=O)CN1C(=O)C(C(=O)OC)SC1=Nc1cc(-n2c(=O)cc(C(F)(F)F)n(C)c2=O)c(F)cc1Cl (stereo not drawn) [Compound 128, 5-Carboxy-2-{{2-chloro-5-[3,6-dihydro-3-methyl-2,6-dioxo-4-(trifluoromethyl)-1(2H)-pyrimidinyl]-4-fluorophenyl}imino}-4-oxo-3-thiazolidineacetic acid, 3-ethyl methyl ester] | 0.0 | 0.0 | 0.0 | 0.0 | 0.0 | 0.0 | 0.0 | 2.0 | 3.0 | 0.0 | 0.0 | 1.0 | 3.0 | 9.0 | 0.0 | 3.5 | 4.0 | 6.0 | – |
| Cc1ccccc1CN1C(=O)CSC1=Nc1cc(-n2c(=O)cc(C(F)(F)F)n(C)c2=O)c(F)cc1Cl [Compound 129, 3-{4-Chloro-2-fluoro-5-{[3-(o-methylbenzyl)-4-oxo-2-thiazolidinylidene]amino}phenyl}-1-methyl-6-(trifluoromethyl)-2,4 (1H,3H)-pyrimidinedione] | 0.0 | 2.0 | 2.0 | 4.0 | 0.0 | 0.0 | 0.0 | 7.0 | 7.0 | 0.0 | 1.0 | 9.0 | 9.0 | 9.0 | 0.0 | 4.0 | 4.5 | 4.5 | – |
| Cn1c(C(F)(F)F)cc(=O)n(-c2cc(N=C3SCC(=O)N3Cc3ccccn3)c(Cl)cc2F)c1=O [Compound 131] | – | – | – | – | – | – | – | – | – | – | – | – | – | – | – | 4.5 | 4.5 | 4.5 | Preemergence herbicidal rating GLXMAW [1, 2]: 0.0; Preemergence herbicidal rating GLXMAW [1, 3]: 1.0; Preemergence herbicidal rating GLXMAW [1, 4]: 1.0; Preemergence herbicidal rating GLXMAW [1, 5]: 1.0; Preemergence herbicidal rating AMBEL (AMBEL (Ragweed, Common); [2]): 0.0; Preemergence herbicidal rating AMBEL (AMBEL (Ragweed, Common); [3]): 0.0; Preemergence herbicidal rating AMBEL (AMBEL (Ragweed, Common); [4]): 0.0; Preemergence herbicidal rating AMBEL (AMBEL (Ragweed, Common); [5]): 0.0; Preemergence herbicidal rating ABUTH (ABUTH (Velvetleaf); [2]): 0.0; Preemergence herbicidal rating ABUTH (ABUTH (Velvetleaf); [3]): 0.0; Preemergence herbicidal rating ABUTH (ABUTH (Velvetleaf); [4]): 2.0; Preemergence herbicidal rating ABUTH (ABUTH (Velvetleaf); [5]): 9.0 |
